The test system of one assay is pea mutant rms1. The assay is described as follows: Inhibition of branching in the pea, application directly on the axillary bud. The conditions noted are these: for bud growth inhibition (length of bud/branch at node 3, 8 days after treatment at node 3): Experiment 3, FIG. 5. The assay is classed as in vivo, Pisum sativum L. How it is done:
Generally, in the pea, the first two scales are considered to be the first two nodes, the cotyledonary node being node 0.
The rms1 mutant is an “SMS” signal biosynthesis mutant, repressing branching of the plant.
Tests for activity on the inhibition of branching were carried out in the following way.
The strigolactone-deficient rms1 (ccd8) pea mutants described in Beveridge et al., 1997, were used for the test (M3T884 line derived from the Térèse variety).
The activity of the compounds (IIa), (II′d) and (II′e) in accordance with the invention and of the comparative compound GR24 was evaluated at respective doses of 10 nM, 100 nM and 1 μM, by treatment at node 3. […]
24 plants were sown per treatment. 8 days after sowing, the treatment was carried out on the axillary bud at node 3, by application of 10 μl of each solution to be tested, directly on the bud, by means of a micropipette. The lateral outgrowths at nodes 1 and 2 were removed in order to encourage the growth of the axillary buds at the higher nodes. […]
The activity of the compounds (IIa), (IIb), (IIc), (II′d), (II′e) and (II′f) in accordance with the invention was evaluated at respective doses of 100 nM and 1 μM, by treatment at node 3.
For this, solutions containing each compound to be tested, in 1% acetone, 4% propylene glycol 1450 and 50% ethanol, were used.
The activity of the compounds (IIa), (IIIa), (IIIb) and (IIIc) in accordance with the invention, and also of GR24 as comparative compound, was evaluated at respective doses of 100 nM and 1 μM, by treatment at node 3, according to the protocol described above with reference to experiment 2.
A sample consisting only of the solvent, and without active compound, was also tested as negative control, termed “CTL 0”.
In this experiment, the activity of the compound (IIIa) in accordance with the invention, and also of GR24 as comparative compound, was evaluated at respective doses of 1 nM, 10 nM, 100 nM and 1 μM, by treatment at node 3, according to the protocol described above with reference to experiment 2, for doses of 10 nM, 100 nM and 1 μM of compounds.
A sample consisting only of the solvent, and without active compound (“CTL 0”) was also tested as a negative control. A nontreated (“NT”) control was also carried out.
A dose-response test for evaluating the activity of the compounds by deposition at node 3 was carried out according to the protocol described above with reference to experiment 2, for the compound in accordance with the invention (IIa) and for the comparative compounds GR24, Comp. 3 and Comp. 4. Concentrations of 10 nM, 100 nM and 1 μM were tested.
A sample consisting only of the solvent, and without active compound (“CTL 0”), was also tested as a negative control. A nontreated (“NT”) control was also carried out.
A dose-response test for evaluating the activity of the compounds by deposition at node 3 was carried out according to the protocol described above with reference to experiment 2, for the compound in accordance with the invention (IIa) and for the comparative compounds GR24, Comp. 5 and Comp. 6. Concentrations of 10 nM and 100 nM were tested. […]
The sprouting of the axillary buds at node 4 was measured 8 days after the treatment by means of a digital sliding caliper.
The activity of the compound (IIIa) in accordance with the invention on bud growth at node 3 was evaluated at a dose of 1000 nM by treatment at node 3. The GR24 compound was tested at the same concentration as comparative compound. […]

The subject of a further assay is pea rms1 mutants. The assay can be described thus: Hydroponic culture test in pea. The assay is classed as in vivo, Pisum sativum L. The conditions noted are these: 3 μM in hydroponic culture solution, 8 days. How it is done:
For this example, ramosus (rms1) hyperbranched pea (Pisum sativum L.) mutants were used.
More particularly, rms1 (rms1-10) hyperbranched mutant plants were used. The nutritive solution (100%) was prepared by adding the following macronutrients to 1000 l of water: HNO3 (0.28 l), (NH4)2HPO4 (120 g), Ca(NO3)2 (40 g), Mg(NO3)2 (140 g), KNO3 (550 g), (NH4)2MoO4 (0.05 g), H3BO3 (15 g), MnSO4.H2O (2 g), ZnSO4.7H2O (1 g), CuSO4.5H2O (0.25 g), Sequestrene® (10 g) (Fe-EDTA solution). The pea seeds were germinated in moist sand for 6 days, then placed in holes of a lid (35 holes/lid, 20 mm in diameter) of an opaque PVC pot containing the hydroponic culture solution (47 l, pH 5.8).
In a first experiment, acetone or the compound to be tested (dissolved in acetone) was added to the hydroponic culture solution so as to obtain a final concentration of 0 or 1 μM of compound to be tested and 0.01% of acetone.
The hydroponic culture solution was continually aerated by means of an aquarium pump and replaced each week. 8 days after the start of the treatment, the lengths of bud/branch (nodes 1 to 6) were measured with an electronic sliding caliper.
This experiment was carried out for the compounds according to the invention (IIa) and (IIIb), and also the GR24 compound as comparative compound. A negative control (<<CTL 0>>), corresponding to a treatment with the solvent alone, was also carried out.
The results (mean data on 20 plants), in terms of, on the one hand, length of the branches at nodes 3 to 5 and, on the other hand, plant height, are shown respectively in FIGS. 11 and 12.
The same experiment was carried out for the compound in accordance with the invention (II″g) and the comparative compound GR24. Dimethyl sulfoxide (DMSO) or the compound to be tested, dissolved in DMSO, was added to the hydroponic culture solution so as to obtain a final concentration of 0 or 3 μM of compound to be tested and 0.01% of DMSO.
The results (mean data on 10 to 12 plants), in terms, on the one hand, of length of the branches at nodes 3 to 4 and, on the other hand, of plant height, are shown respectively in FIGS. 13 and 14.

Another assay concerns MRC5 cells. The assay can be described thus: In vitro cytotoxicity study on MRC5 cells (MTS). The conditions noted are these: Homo sapiens, MRC5, 72 hours, ± standard error, read-out: Percentage inhibition of MRC5 cell growth. The assay is classed as cell-based, human. How it is done: The cytotoxicity of the compound (IIa) according to the invention, and that of GR24 and of GR5 as comparative compounds, was evaluated in vitro, at concentrations of 10^−4 M and 10^−5 M, on MRC5 cells, in DMSO, in the following way.
MRC5 cells (human lung (fibroblasts) were cultured in Dulbecco's modified Eagle medium (DMEM) supplemented with: 25 mM of glucose, 10% (v/v) of fetal calf serum, 100 IU of penicillin, 100 μg/ml of streptomycin and 1.5 μg/ml of fungizone, and kept under 5% of CO2 at 37° C.
96-well plates were seeded with 2100 MRC5 cells per well in 200 μl of medium. After 24 hours, each of the compounds dissolved in DMSO was added for 72 hours, at a final concentration of 10^−4 M or 10^−5 M in a fixed volume of DMSO. The controls received an equal volume of DMSO.
The viable cell number was measured at 490 nm with the MTS reagent (Promega), and, for each compound, the concentration causing 50% inhibition of cell growth, IC50, was calculated.

[1] abbreviates: Experiment 2, FIG. 4, 100 nM and 1 μM.
[2] abbreviates: Experiment 1, FIG. 3, concentration of 1 μM.

This is an account of results in patent publication US9532569B2 (INSTITUT NATIONAL DE LA RECHERCHE AGRONOMIQUE, priority 2012, dated 2017).

On to `CC1=C(C)C(Sc2ccc(Br)cc2)OC1=O` (centres unmarked), for which, in the assay with pea mutant rms1 (setting [1]), the “inhibitory activity on bud growth (length of bud/branch at node 3, 8 days after treatment at node 3)” value was “most active”.

Turning to `CC1=C(C)C(Oc2ccc(Br)cc2)OC1=O` (centres unmarked) [Compound (II′e), 5-(4-bromophenoxy)-3,4-dimethylfuran-2(5H)-one], in the assay on pea mutant rms1 (setting [2]), the “inhibitory activity on bud growth (length of bud/branch at node 3, 8 days after treatment at node 3)” value is “exhibit an inhibitory activity on bud growth at node 3”.

`CC1=C(C)C(Oc2ccc3ccc(=O)oc3c2)OC1=O` (centres unmarked) [Compound (II″g), 7-[3,4-dimethylfuran-2(5H)-one]oxycoumarin]: the “length of the branches at nodes 3 to 4” value in the assay on pea rms1 mutants (FIG. 13) was “an activity on all the branches of nodes 3 to 4, and also an effect on plant height, which are both greater than those of the comparative compound GR24”. For the same compound, the plant height entry in the assay with pea rms1 mutants (FIG. 14) is recorded as “an effect on plant height, which are both greater than those of the comparative compound GR24”.

With `CC1=C(C)C(Oc2ccc(Cl)cc2)OC1=O` (centres unmarked) [Compound (II′d), 5-(4-chlorophenoxy)-3,4-dimethylfuran-2(5H)-one], the “inhibitory activity on bud growth (length of bud/branch at node 3, 8 days after treatment at node 3)” value with pea mutant rms1 (setting [2]) is “exhibit an inhibitory activity on bud growth at node 3”.

Consider `CC(C=O)=COC1OC(=O)C(C)=C1C` (centres unmarked) [Compound (IIIa), 3-((3,4-dimethyl-5-oxo-2,5-dihydrofuran-2-yl)oxy)-2-methylacrylaldehyde], for which, in the assay with pea mutant rms1 (100 nM and 1 μM), the “bud growth inhibition (length of bud/branch at node 3, 8 days after treatment at node 3)” value was “slightly less active, exhibit, however, a high activity in terms of bud growth inhibition”. For the same compound, in the assay on pea mutant rms1 (Experiment 8, FIG. 10, 1000 nM), the “inhibitory activity on bud growth at node 3 (length of bud/branch 8 days after treatment at node 3)” value was “although less than that of GR24, is highly significant”.

Consider `CC1=C(C)C(Sc2ccc(C(F)(F)F)cc2)OC1=O` (centres unmarked) [Compound (IIc), 3,4-dimethyl-5-((4-(trifluoromethyl)phenyl)thio)furan-2(5H)-one], for which the “inhibitory activity on bud growth (length of bud/branch at node 3, 8 days after treatment at node 3)” value in the assay on pea mutant rms1 (setting [1]) is on record as “most active”.

As for `C=C/C(C)=C/OC1OC(=O)C(C)=C1C` (centres unmarked) [Compound (IIIc), (E)-3,4-dimethyl-5-((2-methylbuta-1,3-dien-1-yl)oxy)furan-2(5H)-one], in the assay with pea mutant rms1 (100 nM and 1 μM), the “bud growth inhibition (length of bud/branch at node 3, 8 days after treatment at node 3)” value was “slightly less active, exhibit, however, a high activity in terms of bud growth inhibition”.

Turning to `CC1=CC(O/C=C2\CCOC2=O)OC1=O` (centres unmarked) [GR5], in the assay with MRC5 cells (10^−4M), the inhibition at 100 µM was 66 ± 1%. The inhibition at 10 µM in the assay with MRC5 cells (10^−5M) amounted to 0%.
